In patent US20090163561A1, “AMORPHOUS METAXALONE AND AMORPHOUS DISPERSIONS THEREOF” (URL Pharma, Inc., priority 2007, published 2009):
Where two headings read alike, the source gives them in different places.

Columns and labels:
[1] = pH ˜1.5; cited from earlier work
[2] = Moisture balance (moisture sorption-desorption analysis); format: physicochemical; conditions: for post-MB XRPD form: after moisture balance
Excerpt: FIG. 6. Moisture sorption-desorption analysis of metaxalone Form A. FIG. 10. Moisture sorption-desorption analysis of metaxalone Form B.

[3] = Storage stability of solid amorphous metaxalone; format: physicochemical
Procedure: A glass vial containing metaxalone Form A was placed in a silicon oil bath at 155° C. Once the solids had melted, the vial was quickly cooled in a dry ice/acetone bath (about −78° C.). Glassy solids resulted.

SMILES	solubility at low pH [1]	MB (moisture balance) result [2]	post-MB XRPD form [2]	stability against conversion to a crystalline form when stored [3]	stability against conversion to a crystalline form when stored ([3]; listed as solid amorphous metaxalone)
Cc1cc(C)cc(OCC2CNC(=O)O2)c1 (stereo not shown) [Crystalline metaxalone, 5-(3′,5′-dimethylphenoxy)methyl-2-oxazolidinone]	insoluble				
Cc1cc(C)cc(OCC2CNC(=O)O2)c1 (stereo not shown) [Metaxalone Form A, 5-(3′,5′-dimethylphenoxy)methyl-2-oxazolidinone]		nonhygroscopic solid	Form A		
Cc1cc(C)cc(OCC2CNC(=O)O2)c1 (stereo not shown) [Solid Amorphous Metaxalone, 5-(3′,5′-dimethylphenoxy)methyl-2-oxazolidinone]				produce crystalline material	not stable
Cc1cc(C)cc(OCC2CNC(=O)O2)c1 (stereo not shown) [Metaxalone Form B, 5-(3′,5′-dimethylphenoxy)methyl-2-oxazolidinone]		non-hygroscopic	Form B		
